Measured values taken from patent US11219663B2, “Composition containing cyclic dipeptide and sweetening agent” (SUNTORY HOLDINGS LIMITED, priority 2015, dated 2022).
Where a SMILES comes first, the peptide text is derived from it.

Test system: NCI-H716 cells
Assay: Active GLP-1 secretion amount of NCI-H716 cells cultured for one hour with the sample (ELISA)
Type: cell-based, Human
Conditions: for Amount of active GLP-1, relative value (control regarded as 100), average value / Amount of Active GLP-1 (relative amount to control as 100), average value: 1 h
Text: As cyclic dipeptides: cyclo(glycyl-tyrosine) [Cyclo(Gly-Tyr)] (CGY) and cyclo(leucyl-phenylalanine) [Cyclo(Leu-Phe)] (CLF), and chemical synthesized preparations were used. Poly-L-Lysine 96-well plates were obtained from Becton Dickinson (BD). PBS (+), an antibiotic substance, Dulbecco's Modified Eagle's Medium (DMEM) and glucose used herein were obtained from Nacalai Tesque Inc.; sucralose, acesulfame potassium and aspartame from Wako Pure Chemical Industries Ltd.; active GLP-1 ELISA kit from Merck Millipore, Fetal bovine serum (FBS) from Sigma; and Sitagliptin phosphate from SantaCruz Biotechnology. Human intestinal cell strain, NCI-H716 cells used herein were provided by ATCC.
NCI-H716 cells, which were suspended in DMEM culture medium (containing 10% FBS, 2 mM glutamine, 1% antibiotic substance), were seeded in Poly-L-Lysine 96-well plates in an amount of 100 μL for each so as to contain 0.5×10^5 cells/well and cultured in a CO2 incubator (manufactured by ESPEC CORP.) for 48 hours.
Sweetening agent solutions were prepared each by adding a sweetening agent to PBS (+). In the case of glucose, a concentration was set at 3%, sucralose at 0.6%, acesulfame potassium at 0.3%, and aspartame at 0.3%. A cyclic dipeptide was dissolved in DMSO and then added to each of sweetening agent solutions so as to obtain final concentrations shown in Table 1 and Table 2. Note that, all cell addition solutions were prepared such that DMSO (0.1%) and a 10 μM Sitagliptin phosphate were contained.
After the cells were washed once with PBS (+), a reaction solution was added to the cells. One hour later, the solution added was recovered. Thereafter, the amount of active GLP-1 in the solution recovered was measured by using the ELISA kit. Analysis was carried out using relative values to the amount of active GLP-1 (regarded as 100) in a (sample) group to which neither sweetening agent nor cyclic dipeptide were added.
NCI-H716 cells, which were suspended in DMEM culture medium (containing 10% FBS, 2 mM glutamine, 1% antibiotic substance) were seeded in Poly-L-Lysine 96-well plates in an amount of 100 μL for each so as to contain 0.5×10^5 cells/well and cultured in an CO2 incubator (manufactured by ESPEC CORP.) for 48 hours. After the cells were washed with PBS (+), a PBS (+) solution already containing 10 μM Sitagliptin phosphate was controlled such that the final concentration of stevioside or RebA was 0.01%, and the final concentration of Cyclo(Leu-Phe) was 0.02 μg/mL or 2 μg/mL. The PBS (+) solution (100 μL) was individually added to the NCI-H716 cells. One hour later, the solution added was recovered and the amount of active GLP-1 in the solution was measured by the ELISA kit. Analysis was carried out based on relative values to the amount of active GLP-1 (regarded as 100) in a (sample) group to which neither a steviol glycoside not Cyclo(Leu-Phe) were added
The experiment was carried out in accordance with Example 2. A PBS (+) solution already containing 10 μM Sitagliptin phosphate was controlled such that the final concentration of RebD was 0.01%, and the final concentration of Cyclo(Gly-Tyr) was 0.01 μg/mL or 1 μg/mL. The PBS (+) solution (100 μL) was individually added to the NCI-H716 cells.
NCI-H716 cells, which were suspended in DMEM culture medium (containing 10% FBS, 2 mM glutamine, 1% antibiotic substance), were seeded in Poly-L-Lysine 96-well plates in an amount of 100 μL for each so as to add 0.5×10^5 cells/well and cultured in an CO2 incubator (manufactured by ESPEC CORP.) for 48 hours. After the cells were washed with PBS (+), a PBS (+) solution already containing 10 μM Sitagliptin phosphate was controlled such that the final concentration of stevioside, RebA or RebB was 0.001, 0.01 or 0.1%. The PBS (+) solution (100 μL) controlled such that the final concentration of RebC or RebD was 0.001 or 0.01% was added to the cells.

[1] = Example 4, steviol glycoside alone, 0.001 to 0.1% (RebC, RebD 0.001 or 0.01%)
[2] = Table 3, steviol glycoside 0.01% alone
[3] = Table 4, steviol glycoside 0.01% alone
[4] = Table 5, final concentration 0.001%
[5] = Table 5, final concentration 0.01%
[6] = Table 5, final concentration 0.1%
[7] = steviol glycoside alone at a concentration of 0.01%

Compound | GLP-1 secretion-accelerating action (in words) [1] | Amount of Active GLP-1 (relative amount to control as 100), average value [4] | Amount of Active GLP-1 (relative amount to control as 100), average value [5] | Amount of Active GLP-1 (relative amount to control as 100), average value [6] | GLP-1 secretion-accelerating action (in words) [7] | other results
CC1=CC(=O)NS(=O)(=O)O1 [Acesulfame K, acesulfame potassium] |  |  |  |  |  | Amount of active GLP-1, relative value (control regarded as 100), average value (Table 1, acesulfame K 0.3% alone): 125; Amount of active GLP-1, relative value (control regarded as 100), average value (Table 2, acesulfame K 0.3% alone): 145
COC(=O)[C@H](Cc1ccccc1)NC(=O)[C@@H](N)CC(=O)O [Aspartame, aspartame] (H-Asp-Phe-OMe) |  |  |  |  |  | Amount of active GLP-1, relative value (control regarded as 100), average value (Table 1, aspartame 0.3% alone): 112; Amount of active GLP-1, relative value (control regarded as 100), average value (Table 2, aspartame 0.3% alone): 129
C=C1C[C@@]23CC[C@H]4[C@@](C)(CCC[C@@]4(C)C(=O)O[C@@H]4O[C@H](CO)[C@@H](O)[C@H](O)[C@H]4O)[C@@H]2CC[C@]1(O[C@@H]1O[C@H](CO)[C@@H](O)[C@H](O[C@@H]2O[C@H](CO)[C@@H](O)[C@H](O)[C@H]2O)[C@H]1O[C@@H]1O[C@H](CO)[C@@H](O)[C@H](O)[C@H]1O)C3 [RebA, rebaudioside A] | GLP-1 secretion-accelerating action can be obtained | 92.8 | 129.3 | 150.9 | not accelerated | Amount of Active GLP-1 (relative amount to control as 100), average value [2]: 72.6; Amount of Active GLP-1 (relative amount to control as 100), average value [3]: 72.6
C=C1C[C@@]23CC[C@H]4[C@@](C)(CCC[C@@]4(C)C(=O)O[C@@H]4O[C@H](CO)[C@@H](O)[C@H](O)[C@H]4O[C@@H]4O[C@H](CO)[C@@H](O)[C@H](O)[C@H]4O)[C@@H]2CC[C@]1(O[C@@H]1O[C@H](CO)[C@@H](O)[C@H](O[C@@H]2O[C@H](CO)[C@@H](O)[C@H](O)[C@H]2O)[C@H]1O[C@@H]1O[C@H](CO)[C@@H](O)[C@H](O)[C@H]1O)C3 [RebD, rebaudioside D] | GLP-1 secretion-accelerating action can be obtained | 63.1 | 170.0 |  | not accelerated | 
C=C1C[C@@]23CC[C@H]4[C@@](C)(CCC[C@@]4(C)C(=O)O[C@@H]4O[C@H](CO)[C@@H](O)[C@H](O)[C@H]4O)[C@@H]2CC[C@]1(O[C@@H]1O[C@H](CO)[C@@H](O)[C@H](O)[C@H]1O[C@@H]1O[C@H](CO)[C@@H](O)[C@H](O)[C@H]1O)C3 [Stevioside, stevioside] | GLP-1 secretion-accelerating action can be obtained | 104.9 | 91.3 | 160.9 | not accelerated | Amount of Active GLP-1 (relative amount to control as 100), average value [2]: 62.7; Amount of Active GLP-1 (relative amount to control as 100), average value [3]: 62.7
OC[C@H]1O[C@H](O[C@]2(CCl)O[C@H](CCl)[C@@H](O)[C@@H]2O)[C@H](O)[C@@H](O)[C@H]1Cl [Sucralose, sucralose] |  |  |  |  |  | Amount of active GLP-1, relative value (control regarded as 100), average value (Table 1, sucralose 0.6% alone): 206; Amount of active GLP-1, relative value (control regarded as 100), average value (Table 2, sucralose 0.6% alone): 233
cyclo(glycyl-tyrosine) [Cyclo(Gly-Tyr)] |  |  |  |  |  | Amount of Active GLP-1 (relative amount to control as 100), average value (Table 4, Cyclo(Gly-Tyr) 0.01 μg/mL alone): 65.1
cyclo(leucyl-phenylalanine) [Cyclo(Leu-Phe)] |  |  |  |  |  | Amount of Active GLP-1 (relative amount to control as 100), average value (Table 3, Cyclo(Leu-Phe) 0.02 μg/mL alone): 65.1; Amount of Active GLP-1 (relative amount to control as 100), average value (Table 3, Cyclo(Leu-Phe) 2 μg/mL alone): 59.9; Amount of Active GLP-1 (relative amount to control as 100), average value (Table 4, head prints Cyclo(Leu-Phe) 1 μg/mL alone): 59.9
rebaudioside B [RebB] | GLP-1 secretion-accelerating action can be obtained | 82.0 | 70.5 | 151.2 |  | 
rebaudioside C [RebC] | GLP-1 secretion-accelerating action was not observed | 52.8 | 55.0 |  |  | 
